This is an account of results in the Kinase Knowledgebase extract (Sharma et al. 2016).

The target of the test is PIK3CG (human) (UniProt P48736). As to the kind of experiment: Assessment of PIK3CG Kinase Activity.
Sequence of PIK3CG (human) (P48736 whole entry, looked up): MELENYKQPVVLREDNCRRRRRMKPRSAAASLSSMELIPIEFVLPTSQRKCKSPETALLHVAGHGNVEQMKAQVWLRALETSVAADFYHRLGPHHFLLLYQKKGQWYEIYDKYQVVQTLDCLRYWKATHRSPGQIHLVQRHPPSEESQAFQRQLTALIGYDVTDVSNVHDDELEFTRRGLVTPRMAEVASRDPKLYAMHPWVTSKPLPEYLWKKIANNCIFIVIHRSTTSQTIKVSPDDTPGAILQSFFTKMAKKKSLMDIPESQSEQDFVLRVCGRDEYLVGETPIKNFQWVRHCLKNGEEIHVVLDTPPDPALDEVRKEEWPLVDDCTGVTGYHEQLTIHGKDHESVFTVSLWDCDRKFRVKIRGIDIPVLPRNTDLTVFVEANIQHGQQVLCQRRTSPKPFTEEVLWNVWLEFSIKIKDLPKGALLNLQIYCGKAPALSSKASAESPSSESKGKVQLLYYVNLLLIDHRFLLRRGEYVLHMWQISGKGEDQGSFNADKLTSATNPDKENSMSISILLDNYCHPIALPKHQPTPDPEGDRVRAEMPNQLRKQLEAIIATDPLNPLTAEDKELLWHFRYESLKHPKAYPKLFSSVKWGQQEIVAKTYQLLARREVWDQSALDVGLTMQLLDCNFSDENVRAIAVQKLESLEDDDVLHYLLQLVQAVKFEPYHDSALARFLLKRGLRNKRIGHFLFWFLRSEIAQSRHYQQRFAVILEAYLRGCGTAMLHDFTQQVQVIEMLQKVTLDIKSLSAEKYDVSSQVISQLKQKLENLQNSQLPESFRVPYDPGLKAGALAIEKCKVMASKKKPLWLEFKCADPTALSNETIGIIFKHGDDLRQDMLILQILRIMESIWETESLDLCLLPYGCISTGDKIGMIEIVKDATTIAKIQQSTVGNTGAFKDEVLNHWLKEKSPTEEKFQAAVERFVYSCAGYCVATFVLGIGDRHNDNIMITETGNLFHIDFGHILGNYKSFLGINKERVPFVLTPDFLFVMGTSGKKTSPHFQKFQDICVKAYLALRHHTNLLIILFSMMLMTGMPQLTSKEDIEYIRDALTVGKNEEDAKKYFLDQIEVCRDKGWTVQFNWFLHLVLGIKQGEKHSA
In turn, `COc1cc2c(Sc3ccc(Cl)cc3)c(C(=O)Nc3nnn[nH]3)sc2cc1F` came in with an IC50 of 45.5 nM. With `COc1cc2c(OC3CCN(C(=O)OC(C)(C)C)CC3)c(C(=O)Nc3nn[nH]n3)sc2cc1F` the figure was 16 nM.

Consider `COc1ccc2c(SC3CCCCC3)c(C(=O)Nc3nnn[nH]3)sc2c1F`, for which the 50% inhibitory concentration (IC50) was 27 nM. Take `COc1ccc2sc(C(=O)Nc3nnn[nH]3)c(Sc3ccc(CC(=O)O)cc3)c2c1F`: the IC50 was determined as 19400 nM. Against the preceding molecule, the IC50 is about 720-fold higher. With `COc1cc2c(Oc3ccccc3)c(C(=O)Nc3nn[nH]n3)sc2cc1F` the figure was 24.5 nM; with `COc1cc2c(SC3CCCCC3)c(C(=O)Nc3nnn[nH]3)sc2cc1F`, 12 nM; with `COc1cc2c(OCC3(C)CC3)c(C(=O)Nc3nn[nH]n3)sc2cc1F`, 14 nM. Next, `COc1ccc2sc(C(=O)Nc3nnn[nH]3)c(Sc3cccc(C(F)(F)F)c3)c2c1F`: 11000 nM; `COc1cc2c(O[C@@H]3CCC[C@@H](C)C3)c(C(=O)Nc3nn[nH]n3)sc2cc1F`: 35 nM; `COc1ccc2sc(C(=O)Nc3nnn[nH]3)c(Sc3ccc(C4CCCCC4)cc3)c2c1F`: 505 nM. In the case of `COc1cc2c(O[C@@H]3CCC[C@H](C)C3)c(C(=O)Nc3nn[nH]n3)sc2cc1F`, the IC50 came out at 3.8 nM. Next, `COc1ccc2sc(C(=O)Nc3nnn[nH]3)c(SC(c3ccccc3)C(C)N(C)C(C)=O)c2c1F` (configuration not stated): 20000 nM.
